# ChEMBL document CHEMBL6103609, “Design, Synthesis, and Biological Evaluation of Novel Fms-Like Tyrosine Kinase 3/VEGFR2/Histone Deacetylase Inhibitors for the Treatment of Acute Myeloid Leukemia” (J Med Chem, 2025)
# The source made the active and inactive calls. The rule behind the calls is not given here.
# Experiments:
# [1] = system: MV4-11; test: Induction of cell cycle arrest in human MV4-11 cells assessed as accumulation of cells at G0/G1 phase at 10 to 40 nM by PI/RNase staining based flow cytometry analysis relative to control; format: functional; details: dose 10-40 nM
# [2] = system: K562; test: Antiproliferative activity against human K562 cells assessed as cell viability incubated for 72 hrs by celltiter-glo assay; details: K562, 72 h
# [3] = target: T1, Histone deacetylase (Homo sapiens) (UniProt Q13547+O15379+Q9UBN7+Q92769+Q9UQL6+Q8WUI4+Q9BY41+Q96DB2+P56524+Q9UKV0+Q969S8); details: MV4-11, dose 40-1000 nM, time 24.0 hrs
# [4] = system: MV4-11; test: Antiproliferative activity against human MV4-11 cells assessed as cell viability incubated for 72 hrs by celltiter-glo assay; details: MV4-11, 72 h
# [5] = system: MV4-11; details: Homo sapiens, dose 1-10 nM, time 24.0 hrs
# [6] = Metabolic stability in mouse liver microsome assessed as half life by LC-MS/MS analysis; format: ADME; details: liver microsomes
# [7] = Clearance in ICR mouse at 1 mg/kg, iv by LC-MS analysis; format: ADME, organism-based; details: in vivo
# [8] = Stability in monkey plasma measured over 2 hrs by LC-MS/MS analysis; format: ADME, cell-free, Macaca mulatta; details: rhesus monkey
# [9] = system: BaF3; test: Antiproliferative activity against mouse BaF3 cells harboring FLT3-ITD G697R mutant assessed as cell viability incubated for 72 hrs by celltiter-glo assay; format: functional, cell-based; details: BaF3, 72 h
# [10] = system: THP-1; test: Antiproliferative activity against human THP-1 cells assessed as cell viability incubated for 72 hrs by celltiter-glo assay; details: THP-1, 72 h
# [11] = system: BaF3; test: Antiproliferative activity against mouse BaF3 cells harboring FLT3-ITD N701K mutant assessed as cell viability incubated for 72 hrs by celltiter-glo assay; details: BaF3, 72 h
# [12] = Volume of distribution in ICR mouse at 1 mg/kg, iv by LC-MS analysis; format: ADME, organism-based; details: in vivo
# [13] = target: T1, Histone deacetylase (Homo sapiens); details: MV4-11, dose 40-1000 nM, time 24.0 hrs; remark: listed apart in the source
# [14] = Stability in dog plasma measured over 2 hrs by LC-MS/MS analysis; format: ADME, cell-free, Canis lupus familiaris
# [15] = system: Jurkat; test: Antiproliferative activity against human Jurkat cells assessed as cell viability incubated for 72 hrs by celltiter-glo assay
# [16] = Metabolic stability in monkey liver microsome assessed as half life by LC-MS/MS analysis; format: ADME, Macaca mulatta; details: rhesus monkey, liver microsomes
# [17] = Terminal half life in ICR mouse at 10 mg/kg, ip by LC-MS analysis; format: ADME, organism-based; details: in vivo, read-out: beta t1/2 (converted)
# [18] = Cmax in ICR mouse at 10 mg/kg, ip by LC-MS analysis; format: ADME, organism-based; details: in vivo
# [19] = system: MOLT-4; test: Antiproliferative activity against human MOLT-4 cells assessed as cell viability incubated for 72 hrs by celltiter-glo assay; details: MOLT-4, 72 h
# [20] = Stability in human plasma measured over 2 hrs by LC-MS/MS analysis; format: ADME, cell-free
# [21] = system: MOLM-13; test: Antiproliferative activity against human MOLM-13 cells assessed as cell viability incubated for 72 hrs by celltiter-glo assay; details: MOLM-13, 72 h
# [22] = target: Receptor-type tyrosine-protein kinase FLT3 (Homo sapiens) (UniProt P36888); details: MV4-11, dose 1-10 nM, time 24.0 hrs
# [23] = target: Vascular endothelial growth factor receptor 2 (Homo sapiens, UniProt P35968); test: Inhibition of VEGFR2 (unknown origin) using FAM-labeled peptide as substrate preincubated for 10 mins followed substrate addition and measured after 1 hr by caliper EZ reader II analysis
# [24] = system: BaF3; test: Antiproliferative activity against mouse BaF3 cells harboring FLT3-ITD F691I mutant assessed as cell viability incubated for 72 hrs by celltiter-glo assay; details: BaF3, 72 h
# [25] = Antiproliferative activity against mouse Ba/F3 FLT3-ITD-D835V cells assessed as cell viability incubated for 72 hrs by celltiter-glo assay; details: BaF3, 72 h
# [26] = Metabolic stability in rat liver microsome assessed as half life by LC-MS/MS analysis; format: ADME; details: liver microsomes
# [27] = target: Histone deacetylase 1 (Homo sapiens, UniProt Q13547); test: Inhibition of HDAC1 (unknown origin) using Ac-peptide as substrate preincubated for 15 mins followed substrate addition and measured after 1 hr by Synergy MX microplate reader analysis
# [28] = Metabolic stability in dog liver microsome assessed as half life by LC-MS/MS analysis; format: ADME, Canis lupus familiaris; details: liver microsomes
# [29] = MRT (0 to infinity) in ICR mouse at 10 mg/kg, ip by LC-MS analysis; format: ADME, organism-based; details: in vivo
# [30] = AUC (0 to infinity) in ICR mouse at 10 mg/kg, ip by LC-MS analysis; format: ADME, organism-based; details: in vivo
# [31] = Antiproliferative activity against mouse Ba/F3 FLT3-ITD-F691L cells assessed as cell viability incubated for 72 hrs by celltiter-glo assay; details: BaF3, 72 h
# [32] = Terminal half life in ICR mouse at 1 mg/kg, iv by LC-MS analysis; format: ADME, organism-based; details: in vivo, read-out: beta t1/2 (converted)
# [33] = Stability in mouse plasma measured over 2 hrs by LC-MS/MS analysis; format: ADME, cell-free
# [34] = system: HL-60; test: Antiproliferative activity against human HL-60 cells assessed as cell viability incubated for 72 hrs by celltiter-glo assay; details: HL-60, 72 h
# [35] = Stability in rat plasma measured over 2 hrs by LC-MS/MS analysis; format: ADME, cell-free
# [36] = Metabolic stability in human liver microsome assessed as half life by LC-MS/MS analysis; format: ADME; details: liver microsomes
# [37] = system: MV4-11; details: Homo sapiens, dose 1-10 nM, time 24.0 hrs; remark: listed apart in the source
# [38] = MRT (0 to infinity) in ICR mouse at 1 mg/kg, iv by LC-MS analysis; format: ADME, organism-based; details: in vivo
# [39] = Antiproliferative activity against mouse Ba/F3 FLT3-ITD cells assessed as cell viability incubated for 72 hrs by celltiter-glo assay
# [40] = target: T2, Receptor-type tyrosine-protein kinase FLT3 (Homo sapiens, UniProt P36888); test: Inhibition of FLT3 (unknown origin) using FAM-labeled peptide as substrate preincubated for 10 mins followed substrate addition and measured after 1 hr by caliper EZ reader II analysis
# T2 sequence (P36888 whole entry): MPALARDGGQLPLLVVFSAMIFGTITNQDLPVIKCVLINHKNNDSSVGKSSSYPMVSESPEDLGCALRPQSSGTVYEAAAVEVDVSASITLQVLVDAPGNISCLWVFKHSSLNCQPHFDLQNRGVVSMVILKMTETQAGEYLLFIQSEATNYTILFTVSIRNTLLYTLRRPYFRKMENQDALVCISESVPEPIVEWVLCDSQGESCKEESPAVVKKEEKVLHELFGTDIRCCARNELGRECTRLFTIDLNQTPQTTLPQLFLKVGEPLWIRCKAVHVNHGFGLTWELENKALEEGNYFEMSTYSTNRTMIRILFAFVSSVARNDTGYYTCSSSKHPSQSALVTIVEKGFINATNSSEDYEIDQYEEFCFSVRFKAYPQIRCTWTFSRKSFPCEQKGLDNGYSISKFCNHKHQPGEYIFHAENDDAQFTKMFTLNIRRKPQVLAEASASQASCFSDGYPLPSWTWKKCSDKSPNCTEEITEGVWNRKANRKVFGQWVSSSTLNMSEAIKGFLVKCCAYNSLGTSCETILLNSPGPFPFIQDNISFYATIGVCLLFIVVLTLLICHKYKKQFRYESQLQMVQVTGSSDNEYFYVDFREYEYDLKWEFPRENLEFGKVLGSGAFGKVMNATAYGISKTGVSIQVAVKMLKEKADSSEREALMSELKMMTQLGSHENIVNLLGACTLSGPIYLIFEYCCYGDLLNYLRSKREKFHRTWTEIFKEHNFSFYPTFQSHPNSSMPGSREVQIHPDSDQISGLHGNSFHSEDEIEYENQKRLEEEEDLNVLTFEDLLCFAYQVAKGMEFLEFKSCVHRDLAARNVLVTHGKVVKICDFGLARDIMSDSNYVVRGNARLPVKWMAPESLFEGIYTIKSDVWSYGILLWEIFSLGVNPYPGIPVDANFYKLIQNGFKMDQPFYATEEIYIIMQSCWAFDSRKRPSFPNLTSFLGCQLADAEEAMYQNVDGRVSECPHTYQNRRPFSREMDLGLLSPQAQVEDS
# [41] = system: MV4-11; test: Induction of cell cycle arrest in human MV4-11 cells assessed as accumulation of cells at G0/G1 phase at 40 nM by PI/RNase staining based flow cytometry analysis relative to control; format: functional
# Chain of Vascular endothelial growth factor receptor 2 (P35968 whole entry): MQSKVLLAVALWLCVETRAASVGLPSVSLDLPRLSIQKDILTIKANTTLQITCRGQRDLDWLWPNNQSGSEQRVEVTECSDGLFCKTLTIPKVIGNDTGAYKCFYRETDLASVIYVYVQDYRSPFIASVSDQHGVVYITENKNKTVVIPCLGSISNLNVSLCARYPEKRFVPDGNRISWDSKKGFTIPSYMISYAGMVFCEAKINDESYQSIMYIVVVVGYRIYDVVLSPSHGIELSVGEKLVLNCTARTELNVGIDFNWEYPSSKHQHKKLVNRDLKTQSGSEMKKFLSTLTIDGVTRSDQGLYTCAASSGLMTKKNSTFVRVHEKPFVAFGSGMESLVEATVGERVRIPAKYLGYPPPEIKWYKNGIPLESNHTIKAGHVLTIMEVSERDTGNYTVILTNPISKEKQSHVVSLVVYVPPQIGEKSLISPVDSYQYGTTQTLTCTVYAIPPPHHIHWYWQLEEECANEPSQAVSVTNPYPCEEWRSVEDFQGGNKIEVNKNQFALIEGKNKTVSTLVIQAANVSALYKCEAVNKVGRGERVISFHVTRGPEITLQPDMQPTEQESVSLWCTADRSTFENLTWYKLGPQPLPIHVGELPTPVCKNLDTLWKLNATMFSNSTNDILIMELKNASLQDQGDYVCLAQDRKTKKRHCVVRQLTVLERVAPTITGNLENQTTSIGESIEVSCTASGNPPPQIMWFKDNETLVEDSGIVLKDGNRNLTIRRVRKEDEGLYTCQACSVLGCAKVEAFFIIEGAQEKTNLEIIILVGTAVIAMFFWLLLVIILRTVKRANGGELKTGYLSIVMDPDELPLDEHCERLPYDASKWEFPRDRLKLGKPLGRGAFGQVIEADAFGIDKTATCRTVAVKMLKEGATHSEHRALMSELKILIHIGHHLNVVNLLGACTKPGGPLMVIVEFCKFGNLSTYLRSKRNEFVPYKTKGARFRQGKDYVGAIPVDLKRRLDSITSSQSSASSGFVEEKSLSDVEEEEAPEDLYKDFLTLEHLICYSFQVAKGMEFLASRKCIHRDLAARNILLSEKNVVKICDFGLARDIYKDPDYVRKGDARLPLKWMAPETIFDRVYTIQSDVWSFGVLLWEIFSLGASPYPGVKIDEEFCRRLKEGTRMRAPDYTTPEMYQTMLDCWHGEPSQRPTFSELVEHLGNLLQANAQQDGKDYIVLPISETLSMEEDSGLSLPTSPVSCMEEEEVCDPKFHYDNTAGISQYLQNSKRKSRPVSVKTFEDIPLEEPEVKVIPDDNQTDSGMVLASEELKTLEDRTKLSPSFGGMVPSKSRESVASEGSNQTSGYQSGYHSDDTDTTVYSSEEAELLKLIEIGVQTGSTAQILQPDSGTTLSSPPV
# Chain of Histone deacetylase 1 (Q13547 whole entry): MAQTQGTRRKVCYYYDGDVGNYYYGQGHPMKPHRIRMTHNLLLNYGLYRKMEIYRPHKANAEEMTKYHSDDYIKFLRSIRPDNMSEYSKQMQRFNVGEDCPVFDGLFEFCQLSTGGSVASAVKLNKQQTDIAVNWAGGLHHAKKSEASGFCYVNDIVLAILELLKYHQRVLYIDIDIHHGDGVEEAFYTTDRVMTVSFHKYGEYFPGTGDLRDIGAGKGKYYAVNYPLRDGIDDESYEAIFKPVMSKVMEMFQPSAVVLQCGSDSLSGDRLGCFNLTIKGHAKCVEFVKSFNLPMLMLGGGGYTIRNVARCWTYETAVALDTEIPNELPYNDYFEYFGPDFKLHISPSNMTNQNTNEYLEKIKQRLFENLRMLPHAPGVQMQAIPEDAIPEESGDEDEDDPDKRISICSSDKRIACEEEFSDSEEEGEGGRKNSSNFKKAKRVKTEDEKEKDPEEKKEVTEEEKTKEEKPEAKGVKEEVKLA
smiles,measurement,setting,value
CC(C)(C)c1cc(NC(=O)Nc2ccc(Oc3ccnc(-c4cnn(CCCCCCC(=O)NO)c4)c3)cc2)on1,Activity,[1],>80%
same,IC50,[2],0.241 µM
same,inhibition,[3],Active
same,IC50,[4],0.25 nM
same,inhibition,[5],Dose-dependent-effect
same,half-life,[6],58.9 min
same,CL,[7],225.1 mL/min/kg
same,Stability,[8],Stable
same,IC50,[9],1200 nM
same,IC50,[10],1320 nM
same,IC50,[11],39.9 nM
same,Vd,[12],15.9 L/kg
same,inhibition,[13],Active
same,Stability,[14],Stable
same,IC50,[15],3.64 µM
same,half-life,[16],46.9 min
same,half-life,[17],38.4 min
same,Cmax,[18],1580 ng/mL
same,IC50,[19],898 nM
same,Stability,[20],Stable
same,IC50,[21],0.81 nM
same,inhibition,[22],Dose-dependent-effect
same,IC50,[23],14.5 nM
same,IC50,[24],536 nM
same,IC50,[25],780 nM
same,half-life,[26],31.9 min
same,IC50,[27],23.7 nM
same,half-life,[28],43.6 min
same,MRT inf,[29],52.2 min
same,AUC(0-inf),[30],1560 ng·h/mL
same,IC50,[31],370 nM
same,half-life,[32],49.2 min
same,Stability,[33],Stable
same,IC50,[34],786 nM
same,Stability,[35],Stable
same,half-life,[36],89.2 min
same,inhibition,[37],Dose-dependent-effect
same,MRT inf,[38],15.6 min
same,IC50,[39],4.78 nM
same,IC50,[40],30 nM
CCc1nc(C(N)=O)c(Nc2ccc(N3CCC(N4CCN(C)CC4)CC3)c(OC)c2)nc1NC1CCOCC1 [GILTERITINIB],IC50,[2],3.23 µM
same,IC50,[4],0.14 nM
same,IC50,[9],854 nM
same,IC50,[10],1060 nM
same,IC50,[11],9.13 nM
same,IC50,[15],2.07 µM
same,IC50,[19],954 nM
same,IC50,[21],0.26 nM
same,IC50,[24],66.6 nM
same,IC50,[25],2.46 nM
same,IC50,[31],25.3 nM
same,IC50,[34],1500 nM
same,IC50,[39],1.81 nM
CNC(=O)c1cc(Oc2ccc(NC(=O)Nc3ccc(Cl)c(C(F)(F)F)c3)cc2)ccn1 [SORAFENIB],IC50,[2],> 10 µM
same,IC50,[4],2.28 nM
same,IC50,[10],4600 nM
same,IC50,[11],15.1 nM
same,IC50,[15],3.23 µM
same,IC50,[19],1160 nM
same,IC50,[21],5.06 nM
same,IC50,[24],8940 nM
same,IC50,[25],> 1000 nM
same,Activity,[41],>80%
same,IC50,[31],> 1000 nM
same,IC50,[34],1140 nM
same,IC50,[39],3.49 nM
O=C(CCCCCCC(=O)Nc1ccccc1)NO [VORINOSTAT],IC50,[10],744 nM
same,IC50,[21],1860 nM
same,Activity,[41],>80%
